Laboratory results published in the NIST ThermoML archive (doi:10.1016/j.jct.2011.01.014).

Experiment: xn = mol fraction of the nth substance listed
Conditions: 101 kPa, Liquid; for mass density: Vibrating tube method; for speed of sound: sound velocity cell

CC(=O)[O-].[NH3+]CCO [2-hydroxyethylammonium acetate] + CCO
Conditions	mass density [kg/m3]	speed of sound [m/s]
288.15 K, x1 = 0.0497	830.092	1219.7
288.15 K, x1 = 0.101	862.917	1257.7
288.15 K, x1 = 0.201	917.271	1327
288.15 K, x1 = 0.3009	964.134	1410
288.15 K, x1 = 0.4057	1005.85	1470.2
288.15 K, x1 = 0.4946	1036.29	1529.9
288.15 K, x1 = 0.603	1068.79	1601.6
288.15 K, x1 = 0.6765	1088.47	1646.3
288.15 K, x1 = 0.7918	1116.27	1707.9
288.15 K, x1 = 0.8825	1135.66	1756.7
288.15 K, x1 = 0.9539	1148.76	1806.7
288.15 K, x1 = 1	1154.7	1817.2
290.65 K, x1 = 0.0497	828.024	1211.3
290.65 K, x1 = 0.101	860.918	1249.6
290.65 K, x1 = 0.201	915.381	1319.3
290.65 K, x1 = 0.3009	962.336	1402.9
290.65 K, x1 = 0.4057	1004.14	1463.2
290.65 K, x1 = 0.4946	1034.64	1523
290.65 K, x1 = 0.603	1067.23	1594.9
290.65 K, x1 = 0.6765	1086.9	1639.6
290.65 K, x1 = 0.7918	1114.76	1700.5
290.65 K, x1 = 0.8825	1134.02	1749.4
290.65 K, x1 = 0.9539	1147.23	1796
290.65 K, x1 = 1	1153.28	1810
293.15 K, x1 = 0.0497	825.955	1203
293.15 K, x1 = 0.101	858.918	1241.5
293.15 K, x1 = 0.201	913.49	1311.7
293.15 K, x1 = 0.3009	960.535	1395.7
293.15 K, x1 = 0.4057	1002.43	1456.2
293.15 K, x1 = 0.4946	1033	1516.3
293.15 K, x1 = 0.603	1065.67	1588.4
293.15 K, x1 = 0.6765	1085.33	1633.2
293.15 K, x1 = 0.7918	1113.26	1693.3
293.15 K, x1 = 0.8825	1132.52	1741.7
293.15 K, x1 = 0.9539	1145.67	1786.6
293.15 K, x1 = 1	1151.87	1803.2
295.65 K, x1 = 0.0497	823.881	1194.7
295.65 K, x1 = 0.101	856.913	1233.5
295.65 K, x1 = 0.201	911.596	1304
295.65 K, x1 = 0.3009	958.737	1388.5
295.65 K, x1 = 0.4057	1000.73	1449.2
295.65 K, x1 = 0.4946	1031.36	1509.6
295.65 K, x1 = 0.603	1064.1	1582
295.65 K, x1 = 0.6765	1083.81	1626.8
295.65 K, x1 = 0.7918	1111.76	1686.5
295.65 K, x1 = 0.8825	1131.06	1734.5
295.65 K, x1 = 0.9539	1144.09	1778
295.65 K, x1 = 1	1150.45	1796.8
298.15 K, x1 = 0.0497	821.798	1186.5
298.15 K, x1 = 0.101	854.902	1225.5
298.15 K, x1 = 0.201	909.701	1296.4
298.15 K, x1 = 0.3009	956.936	1381.3
298.15 K, x1 = 0.4057	999.015	1442.3
298.15 K, x1 = 0.4946	1029.72	1502.9
298.15 K, x1 = 0.603	1062.53	1575.6
298.15 K, x1 = 0.6765	1082.31	1620.4
298.15 K, x1 = 0.7918	1110.26	1679.8
298.15 K, x1 = 0.8825	1129.61	1727.5
298.15 K, x1 = 0.9539	1142.5	1769.9
298.15 K, x1 = 1	1149.04	1790.7
300.65 K, x1 = 0.0497	819.712	1178.2
300.65 K, x1 = 0.101	852.887	1217.5
300.65 K, x1 = 0.201	907.8	1288.8
300.65 K, x1 = 0.3009	955.132	1374.2
300.65 K, x1 = 0.4057	997.306	1435.3
300.65 K, x1 = 0.4946	1028.07	1496.2
300.65 K, x1 = 0.603	1060.96	1569.2
300.65 K, x1 = 0.6765	1080.8	1614.2
300.65 K, x1 = 0.7918	1108.76	1673.3
300.65 K, x1 = 0.8825	1128.15	1720.9
300.65 K, x1 = 0.9539	1141.04	1762.4
300.65 K, x1 = 1	1147.63	1784.8
303.15 K, x1 = 0.0497	817.614	1170
303.15 K, x1 = 0.101	850.864	1209.5
303.15 K, x1 = 0.201	905.897	1281.2
303.15 K, x1 = 0.3009	953.327	1367
303.15 K, x1 = 0.4057	995.593	1428.4
303.15 K, x1 = 0.4946	1026.43	1489.6
303.15 K, x1 = 0.603	1059.37	1562.8
303.15 K, x1 = 0.6765	1079.28	1608
303.15 K, x1 = 0.7918	1107.26	1667
303.15 K, x1 = 0.8825	1126.69	1714.5
303.15 K, x1 = 0.9539	1139.62	1755.4
303.15 K, x1 = 1	1146.22	1779
305.65 K, x1 = 0.0497	815.509	1161.8
305.65 K, x1 = 0.101	848.835	1201.5
305.65 K, x1 = 0.201	903.988	1273.6
305.65 K, x1 = 0.3009	951.519	1359.9
305.65 K, x1 = 0.4057	993.881	1421.5
305.65 K, x1 = 0.4946	1024.78	1483
305.65 K, x1 = 0.603	1057.78	1556.5
305.65 K, x1 = 0.6765	1077.76	1601.8
305.65 K, x1 = 0.7918	1105.75	1660.8
305.65 K, x1 = 0.8825	1125.23	1708.2
305.65 K, x1 = 0.9539	1138.2	1748.7
305.65 K, x1 = 1	1144.8	1773.4
308.15 K, x1 = 0.0497	813.395	1153.6
308.15 K, x1 = 0.101	846.797	1193.5
308.15 K, x1 = 0.201	902.073	1266
308.15 K, x1 = 0.3009	949.706	1352.8
308.15 K, x1 = 0.4057	992.164	1414.7
308.15 K, x1 = 0.4946	1023.13	1476.4
308.15 K, x1 = 0.603	1056.17	1550.2
308.15 K, x1 = 0.6765	1076.23	1595.6
308.15 K, x1 = 0.7918	1104.25	1654.6
308.15 K, x1 = 0.8825	1123.77	1702.2
308.15 K, x1 = 0.9539	1136.79	1742.2
308.15 K, x1 = 1	1143.39	1767.9
310.65 K, x1 = 0.0497	811.269	1145.4
310.65 K, x1 = 0.101	844.752	1185.5
310.65 K, x1 = 0.201	900.153	1258.5
310.65 K, x1 = 0.3009	947.892	1345.7
310.65 K, x1 = 0.4057	990.442	1407.8
310.65 K, x1 = 0.4946	1021.48	1469.7
310.65 K, x1 = 0.603	1054.53	1544
310.65 K, x1 = 0.6765	1074.71	1589.6
310.65 K, x1 = 0.7918	1102.76	1648.5
310.65 K, x1 = 0.8825	1122.31	1696.2
310.65 K, x1 = 0.9539	1135.37	1735.9
310.65 K, x1 = 1	1141.96	1762.5
313.15 K, x1 = 0.0497	809.131	1137.2
313.15 K, x1 = 0.101	842.694	1177.6
313.15 K, x1 = 0.201	898.225	1251
313.15 K, x1 = 0.3009	946.069	1338.7
313.15 K, x1 = 0.4057	988.723	1401
313.15 K, x1 = 0.4946	1019.83	1463.2
313.15 K, x1 = 0.603	1052.87	1537.7
313.15 K, x1 = 0.6765	1073.17	1583.5
313.15 K, x1 = 0.7918	1101.31	1642.5
313.15 K, x1 = 0.8825	1120.85	1690.2
313.15 K, x1 = 0.9539	1133.96	1729.9
313.15 K, x1 = 1	1140.55	1757.2
315.65 K, x1 = 0.0497	806.984	1129.1
315.65 K, x1 = 0.101	840.628	1169.7
315.65 K, x1 = 0.201	896.29	1243.5
315.65 K, x1 = 0.3009	944.245	1331.6
315.65 K, x1 = 0.4057	986.994	1394.2
315.65 K, x1 = 0.4946	1018.18	1456.6
315.65 K, x1 = 0.603	1051.28	1531.4
315.65 K, x1 = 0.6765	1071.63	1577.4
315.65 K, x1 = 0.7918	1099.86	1636.6
315.65 K, x1 = 0.8825	1119.38	1684.4
315.65 K, x1 = 0.9539	1132.54	1723.9
315.65 K, x1 = 1	1139.18	1751.9
318.15 K, x1 = 0.0497	804.825	1120.9
318.15 K, x1 = 0.101	838.551	1161.8
318.15 K, x1 = 0.201	894.347	1235.9
318.15 K, x1 = 0.3009	942.413	1324.5
318.15 K, x1 = 0.4057	985.266	1387.3
318.15 K, x1 = 0.4946	1016.52	1450
318.15 K, x1 = 0.603	1049.69	1525.2
318.15 K, x1 = 0.6765	1070.09	1571.3
318.15 K, x1 = 0.7918	1098.4	1630.7
318.15 K, x1 = 0.8825	1117.9	1678.6
318.15 K, x1 = 0.9539	1131.12	1718.1
318.15 K, x1 = 1	1137.82	1746.5
320.65 K, x1 = 0.0497	802.647	1112.8
320.65 K, x1 = 0.101	836.46	1153.9
320.65 K, x1 = 0.201	892.395	1228.4
320.65 K, x1 = 0.3009	940.573	1317.5
320.65 K, x1 = 0.4057	983.53	1380.5
320.65 K, x1 = 0.4946	1014.85	1443.5
320.65 K, x1 = 0.603	1048.1	1519
320.65 K, x1 = 0.6765	1068.53	1565.3
320.65 K, x1 = 0.7918	1096.93	1624.8
320.65 K, x1 = 0.8825	1116.49	1672.8
320.65 K, x1 = 0.9539	1129.69	1712.4
320.65 K, x1 = 1	1136.45	1741.3
323.15 K, x1 = 0.0497	800.468	1104.7
323.15 K, x1 = 0.101	834.368	1146
323.15 K, x1 = 0.201	890.443	1221
323.15 K, x1 = 0.3009	938.735	1310.5
323.15 K, x1 = 0.4057	981.801	1373.7
323.15 K, x1 = 0.4946	1013.19	1437
323.15 K, x1 = 0.603	1046.54	1512.7
323.15 K, x1 = 0.6765	1066.98	1559.4
323.15 K, x1 = 0.7918	1095.47	1618.9
323.15 K, x1 = 0.8825	1115.06	1667.2
323.15 K, x1 = 0.9539	1128.27	1706.7
323.15 K, x1 = 1	1135.08	1736
